Values joined by “and” are separate entries in the source; they are usually repeats but may differ in a detail not shown here. Equal values may be shown once. Read-outs that look alike come from different tables or passages of the source.
Key:
human NHE1 (hNHE1) = target: T1, human NHE1 (hNHE1) (Homo sapiens, UniProt P19634); assay: NHE1 plasma assay (pH recovery, BCECF/FLIPR) with rabbit plasma; format: cell-based
T1 construct: expressed in transfected cells
Text: (§1) Plasma samples were obtained from male New Zealand rabbits (2.5-3.5 kg) maintained on standard rabbit chow with 0.3% cariporide (NHE inhibitor). A blood sample was taken after 1 week from the auricular artery for the determination of the plasma concentrations of cariporide. Determination of plasma concentration of cariporide was done as described below:
(§2) The NHE-Gene (SLC9A1, Franchi A. et al., Proc Natl Acad Sci USA., 1986 December; 83(24):9388-92.) was cloned into the pMamneo-vector and introduced into LAP1 (mouse LTK-cell line) cells. Stable cell lines were generated from transfected cells.
(§3) LAP1 (mouse LTK-cell line) cells stably expressing human NHE1 (hNHE1) were seeded with a density of 25.000 cells/well/100 μl medium (Iscove-medium, 10% FCS, 2 mM L-glutamine, 100 u/ml penicilline/streptomycine, 50 μg/ml gentamicine, 400 μg/ml G418) on black, clear bottom 96-well microplates (Costar®, Corning Inc., Corning, N.Y.). Cells were incubated overnight at 37° C., 5% CO2 and 90% humidity. The medium was discarded prior to measurement and 100 μl/well dye buffer (20 mM HEPES, pH 7.4 adjusted with KOH, 20 mM NH4Cl, 115 mM choline chloride, 1 mM MgCl2, 1 mM CaCl2, 5 mM KCl, 5 mM glucose, 5 μM BCECF) were added. After incubation for 20 min at 37° C. the cells were washed 3-times with Na^+-free washing buffer (5 mM HEPES, pH 7.4 adjusted with KOH, 133.8 mM choline chloride, 4.7 mM KCl, 1.25 mM CaCl2, 1.25 mM MgCl2, 0.97 mM K2HPO4, 0.23 mM KH2PO4, 5 mM glucose), leaving 90 μl of washing buffer per well. pH-recovery was measured with a FLIPR (Fluorometric Imaging Plate Reader, Molecular Devices, Sunnyvale, Calif.; laser power 0.3 W, aperture 4, measuring interval 2 s, time of measurement 120 s). During measurement 90 μl of plasma solution (90% animal plasma from animals feeded w/o antagonist, 10% Na^+-buffer: 10 mM HEPES, pH 7.4 adjusted with KOH, 133.8 mM NaCl, 4.7 mM KCl, 1.25 mM MgCl2, 1.25 mM CaCl2, 0.97 mM Na2HPO4, 0.23 mM NaH2PO4, 5 mM glucose) were added to the wells. Due to the Na^+ in the buffer NHE1 starts to transport H^+ out of the cells, leading to an increase in intracellular pH and fluorescence. High control: plasma solution without antagonist. Low control: plasma solution with 20 μM cariporide (10 μM final concentration). Cariporide was added to the plasma after preparation. […] For calibration different amounts of cariporide and the tested antagonists were added to plasma after preparation to determine the efficiency in animal plasma.
(§4) For calculation of NHE1 activity, the increase in fluorescence between the 12th and 32nd s was calculated. The high control was set as 100% activity whereas the low control determines 0% NHE1 activity. %-activity of the samples was calculated by a comparison to the controls.

[1] = as above; format: cell-based, human; details: male, New Zealand, rabbit, plasma, oral, 0.3 % in chow; rabbits on 0.3% cariporide chow, 1 week; inferred from complete NHE1 block
Text: as §1, §2, §3, §4

hNHE1 [2] = target: T2, hNHE1 (Homo sapiens, UniProt P19634); assay: NHE1 plasma assay (pH recovery, BCECF/FLIPR) with plasma of treated rats; format: cell-based
T2 construct: expressed in transfected cells
T2 sequence (P19634 whole entry): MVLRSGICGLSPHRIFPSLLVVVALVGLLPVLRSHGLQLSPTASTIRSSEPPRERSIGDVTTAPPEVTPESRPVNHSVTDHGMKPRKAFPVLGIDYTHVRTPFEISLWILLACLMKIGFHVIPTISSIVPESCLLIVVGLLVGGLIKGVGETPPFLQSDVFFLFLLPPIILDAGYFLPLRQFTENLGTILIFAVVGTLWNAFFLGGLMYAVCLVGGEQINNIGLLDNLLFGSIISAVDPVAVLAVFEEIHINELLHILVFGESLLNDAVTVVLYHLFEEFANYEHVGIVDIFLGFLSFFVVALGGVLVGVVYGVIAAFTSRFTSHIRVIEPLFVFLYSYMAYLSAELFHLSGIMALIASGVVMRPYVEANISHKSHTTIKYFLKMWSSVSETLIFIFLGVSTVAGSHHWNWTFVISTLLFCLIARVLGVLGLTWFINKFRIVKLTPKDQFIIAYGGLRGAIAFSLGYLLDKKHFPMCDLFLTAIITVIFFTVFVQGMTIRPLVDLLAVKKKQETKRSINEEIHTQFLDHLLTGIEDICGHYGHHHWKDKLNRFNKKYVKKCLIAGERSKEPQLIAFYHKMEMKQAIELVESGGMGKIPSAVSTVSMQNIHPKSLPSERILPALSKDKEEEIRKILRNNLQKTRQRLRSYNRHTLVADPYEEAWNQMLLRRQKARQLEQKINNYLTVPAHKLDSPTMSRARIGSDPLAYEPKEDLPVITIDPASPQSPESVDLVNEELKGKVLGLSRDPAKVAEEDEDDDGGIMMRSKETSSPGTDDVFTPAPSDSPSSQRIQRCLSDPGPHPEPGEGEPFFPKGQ
Description: The animals used for the plasma studied were pretreated as follows: • Animals: Male Sprague Dawley rats (Moellegard) • Body weight: 320-360 g • Anesthesia: Thiopental-Na (Trapanal 100 mg/kg i.p.) • Respiration: 40 Vol % O2 • Blood gases: 32-40 mmHg pCO2 • 80-100 mmHg PO2 • pH 7.35-7.49 • SaO2>96% • Ischemia: 20 min occlusion of LAD (left anterior descending coronary artery) • Reperfusion: 60 min • Body temperature: 36.5° C. • Measurement parameters: myocardial infarct mass mean arterial blood pressure heart rate • compound plasma levels • Blood samples: single probe, 85 min after i.v. injection (end of reperfusion) • or • single probe 200 min after oral treatment (end of reperfusion)
Different amounts of plasma were prepared from groups I to VII 85 mins after injection (groups I-IV, VII) or 200 mins after treatment (groups V-VI) and from untreated rats. Plasma was stored at −20° C. until the analysis was performed.
(§5) For the cell-based determination of NHE1 ligand efficiency, LAP1 (mouse LTK-cell line) cells stably expressing hNHE1 (see Example 1) were seeded at a density of 25.000 cells/well/100 μl medium (Iscove-medium, 10% FCS, 2 mM L-glutamine, 100 μ/ml penicilline/streptomycine, 50 μg/ml gentamicine, 400 μg/ml G418) on black, clear bottom 96-well microplates (Costar®, Corning Inc., Corning, N.Y.). Cells were incubated overnight at 37° C., 5% CO2 and 90% humidity. The medium was discarded prior to measurement and 100 μl/well dye buffer (20 mM HEPES, pH 7.4 adjusted with KOH, 20 mM NH4Cl, 115 mM choline chloride, 1 mM MgCl2, 1 mM CaCl2, 5 mM KCl, 5 mM glucose, 5 μM BCECF) were added. After incubation for 20 min at 37° C. the cells were washed 3-times with Na^+-free washing buffer (5 mM HEPES, pH 7.4 adjusted with KOH, 133.8 mM choline chloride, 4.7 mM KCl, 1.25 mM CaCl2, 1.25 mM MgCl2, 0.97 mM K2HPO4, 0.23 mM KH2PO4, 5 mM glucose), leaving 90 μl of washing buffer per well. The plasma probes were prepared as followed: 10% (v/v) Na^+-buffer (10 mM HEPES, pH 7.4 adjusted with KOH, 133.8 mM NaCl, 4.7 mM KCl, 1.25 mM MgCl2, 1.25 mM CaCl2, 0.97 mM Na2HPO4, 0.23 mM NaH2PO4, 5 mM glucose) were added to 90% (v/v) rat plasma.
High controls (plasma solution without antagonist) and low controls (plasma solution with 20 μM cariporide, 10 μM final concentration) were prepared. […]
The pH-recovery was measured with a FLIPR (Fluorometric Imaging Plate Reader, Molecular Devices, Sunnyvale, Calif.; laser power 0.3 W, aperture 4, measuring interval 2 s, time of measurement 120 s). […]
For calculation of NHE1 activity, the increase in fluorescence between the 12th and 32nd s was calculated. […] Activity (%) of the samples was calculated by a comparison of the controls. Compound plasma levels were calculated in relation to the calibration curve.

hNHE1 [3] = target: T2, hNHE1; assay: Calibration curve of NHE1 activity, compound dilution series in rat plasma; format: cell-based
Description: as §5, with “plasma. High controls (plasma solution without antagonist) and low controls (plasma solution with 20 μM cariporide, 10 μM final concentration) were prepared. A dilution series of cariporide and COMPOUND X in 10% (v/v) Na^+-buffer/90% (v/v) rat plasma was used for a calibration curve to calculate the compound concentration in the rat plasma probes FIGS. 1 and 2). The pH-recovery was measured with a FLIPR (Fluorometric Imaging Plate Reader, Molecular Devices, Sunnyvale, Calif.; laser power 0.3 W, aperture 4, measuring interval 2 s, time of measurement 120 s). During measurement 90 μl of plasma solution were added to the wells. For calculation of NHE1 activity, the increase in fluorescence between the 12th and 32nd s was calculated. The high control was set as 100% activity and the low control as 0% NHE1 activity. Activity (%) of the samples was calculated by a comparison of the controls. Compound plasma levels were calculated in relation to the calibration curve. Additionally, calibration curves were used to calculate the compound plasma levels in the probe sets.” for “plasma.”

[4] = rat plasma, 1 mg/kg i.v., 85 min after injection

T1 sequence (P19634 whole entry): as above

Compound: CC(C)c1ccc(C(=O)NC(=N)N)cc1S(C)(=O)=O [cariporide]
- block of NHE1 activity (human NHE1 (hNHE1); 10 μM cariporide (final) added to plasma): complete block
- Fluorescence increase measured between the 12th and 32nd s, Average (human NHE1 (hNHE1); low control: rabbit plasma with 10 μM cariporide, high control 14416): 631
- NHE1 Activity [%] (human NHE1 (hNHE1); plasma from individual rabbits on 0.3% cariporide chow, sample after 1 week, relative to high/low controls): −0.63% and −5.45% (2×) and −1.53% and −0.39% and −2.25%
- block of NHE1 by plasma probes (human NHE1 (hNHE1); plasma from rabbits on 0.3% cariporide chow): complete block
- concentration at 1 week [1]: ≥ 10 µM
- rel. FI increase mean (hNHE1 [2]; low control: rat plasma solution with 10 μM final cariporide): 3110
- Activity [%] mean (hNHE1 [2]; low control: rat plasma with 10 μM final cariporide, set as 0% NHE1 activity): 0%
- Activity [%] mean (hNHE1 [2]; [4]): 49.95%
- rel. FI increase mean (hNHE1 [2]; [4]): 7392
- EC50 (hNHE1 [3]; calibration curve, dilution series in 90% rat plasma/10% Na+-buffer, LAP1 cells expressing hNHE1, read-out: calculated efficiency in rat plasma (EC50)): 115 nM
- Fit parameter A of the calibration curve (hNHE1 [3]; rat plasma calibration curve): −7.947
- Fit parameter B of the calibration curve (hNHE1 [3]; rat plasma calibration curve): 86.547
- Fit parameter D of the calibration curve (hNHE1 [3]; rat plasma calibration curve): −1.239
- EC50 (hNHE1 [3]; rat plasma calibration curve, C corresponds to the EC50 (0.662 = 662 nM for compound X), read-out: Fit parameter C of the calibration curve): 189 nM

From patent publication US8546102B2, “Methods for determining sodium-proton-exchanger ligand efficiency” (Sanofi, priority 2008, dated 2013)
